Assay results reported in patent publication US9487470B2, “4-((substituted phenyl) difluoromethyl) phenoxy carboxylic acid derivative, and preparation method and uses thereof” (Zhejiang Hisun Pharmaceutical Co., Ltd., priority 2012, dated 2016).

Assays:
[1] = tested on: hyperlipoidemia model of Goldenhamsters (blood plasma TC, TG, HDL-C, LDL-C); assay: Pharmacological test group 1: effects on blood lipid levels of Goldenhamsters in a hyperlipoidemia model; format: in vivo; details: for HDL-C, after administration / LDL-C, after administration / TC, after administration / TG, after administration: 40 mg/kg intragastric, 1 week, high-lipid feed continued, blood plasma, x±s, asterisks = P vs before administration
Excerpt: Animals: 134 male Goldenhamsters, aged 8 weeks, body weight 80-100 g, provided by Vital River Laboratories, Beijing. […] Kits: The kits for total cholesterol (TC), triglyceride (TG), and high density lipoprotein cholesterol (HDL-C) were provided by SYSMEX, and the kits for low density lipoprotein cholesterol (LDL-C) were provided by Shanghai Kehua Bio-engineering Co., Ltd. Apparatus: SYSMEX Automatic Biochemistry Analyzer, Bechman centrifuge, Setoris balance. The animals were acclimatized and fed for 1 week, ad lib, light cycle was 10 h/14 h, and then feeds with high lipid content were fed to the animals (formulation: 0.3% cholesterol, 20% palm oil, and 79.7% basic feeds). The animals were fed for 10 days, and were fasted at 4:00 pm on the 10th day (fasted for 16 h). On the 11th day, the animals were anaesthetized with ethyl ether, weighted, and then 0.5 ml blood was collected from vena orbitalis posterior. The blood was anticoagulated with heparin, and was centrifugated at 5000 rpm for 10 min. The blood plasma was taken, and the levels of TC, TG, HDL-C, and LDL-C in blood plasma were determined using automatic biochemistry analyzer. The animals were acclimatized and fed for 1 week, ad lib, light cycle was 10 h/14 h, and then feeds with high lipid content were fed to the animals (formulation: 0.3% cholesterol, 20% palm oil, and 79.7% basic feeds). The animals were fed for 2 weeks, and were fasted at 4:00 pm on the […] (fasted for 16 h). On the 22nd day, the animals were anaesthetized with ethyl ether, weighted, and then 0.5 ml blood was collected from vena orbitalis posterior. The blood was anticoagulated with heparin, and was centrifugated at 5000 rpm for 10 min. The blood plasma was taken, and the levels of TC, TG, HDL-C, and LDL-C in blood plasma were determined using automatic biochemistry analyzer. […] During the administration, feeds with high lipid content were continuously fed to the animals. The animals were fed for 1 week, and were fasted at 4:00 pm on the 7th day. On the 8th day, the animals were anaesthetized with ethyl ether, weighted, and then 0.5 ml blood was collected from vena orbitalis posterior. The blood was anticoagulated with heparin, and was centrifugated at 5000 rpm for 10 min. The blood plasma was taken, and the levels of TC, TG, HDL-C, and LDL-C in blood plasma were determined using automatic biochemistry analyzer. The results were represented by x±s, and t test was employed for comparing the results obtained before and after administration.

[2] = tested on: hyperlipoidemia model of Goldenhamsters (blood plasma TC, HDL-C, LDL-C); assay: Pharmacological test group 2: effects on blood lipid levels of Goldenhamsters in hyperlipoidemia model; format: in vivo; details: for blood lipid-regulating effects (conclusion from table 3) / therapeutic effect compared with fenofibrate (conclusion from table 3) / effect on HDL-C, in comparison with the results before administration (in words) / effect on LDL-C, in comparison with the results before administration (in words) / effect on TC, in comparison with the results before administration (in words): 40 mg/kg; for HDL-C, after administration / LDL-C, after administration / TC, after administration: 40 mg/kg intragastric, 1 week, high-lipid feed continued, asterisks = P vs before administration; for HDL-C, after administration / LDL-C, after administration / TC, after administration / HDL-C, before administration / LDL-C, before administration / TC, before administration: blood plasma, x±s; for therapeutic effect compared with fenofibrate (conclusion from table 3): fenofibrate 40 mg/kg; for effect on HDL-C, in comparison with the results before administration (in words) / effect on LDL-C, in comparison with the results before administration (in words) / effect on TC, in comparison with the results before administration (in words): t test after vs before administration; for HDL-C, before administration / LDL-C, before administration / TC, before administration: baseline of the group before administration, high-lipid feed 2 weeks, 6 animals
Excerpt: (§1) Animals: 120 male Goldenhamsters, aged 8 weeks, body weight 80-100 g, provided by Vital River Laboratories, Beijing.
Kits: The kits for total cholesterol (TC) and high density lipoprotein cholesterol (HDL-C) were provided by SYSMEX, and the kits for low density lipoprotein cholesterol (LDL-C) were provided by Shanghai Kehua Bio-engineering Co., Ltd.
(§2) Apparatus: SYSMEX Automatic Biochemistry Analyzer, Bechman centrifuge, Setoris balance.
(§3) The animals were acclimatized and fed for 1 week, ad lib, light cycle was 10 h/14 h, and then feeds with high lipid content were fed to the animals (formulation: 0.3% cholesterol, 20% palm oil, and 79.7% basic feeds). The animals were fed for 2 weeks, and were fasted at 4:00 pm on the 14th day (fasted for 16 h). On the 15th day, the animals were anaesthetized with ethyl ether, weighted, and then 0.5 ml blood was collected from vena orbitalis posterior. The blood was anticoagulated with heparin, and was centrifugated at 5000 rpm for 10 min. The blood plasma was taken, and the levels of TC, HDL-C, and LDL-C in blood plasma were determined using automatic biochemistry analyzer.
(§4) During the administration, feeds with high lipid content were continuously fed to the animals. The animals were fed for 1 week, and were fasted at 4:00 pm on the 7th day. On the 8th day, the animals were anaesthetized with ethyl ether, weighted, and then 0.5 ml blood was collected from vena orbitalis posterior. The blood was anticoagulated with heparin, and was centrifugated at 5000 rpm for 10 min. The blood plasma was taken, and the levels of TC, HDL-C, and LDL-C in blood plasma were determined using automatic biochemistry analyzer.
(§5) The results were represented by x±s, and t test was employed for comparing the results obtained before and after administration.

[3] = Solubility in water (remark on the test drugs); format: physicochemical; details: formulated with 20% solutol
[4] = tested on: hyperlipoidemia model of Goldenhamsters (blood plasma TC, TG, HDL-C, LDL-C); assay: Pharmacodynamic test group 3: effects on blood lipid levels of Goldenhamsters in a hyperlipoidemia model; format: in vivo; details: for LDL-C, after administration / TC, after administration / TG, after administration / HDL-C, after administration: 40 mg/kg intragastric, 1 week, high-lipid feed continued, asterisks = P vs before administration; for LDL-C, after administration / TC, after administration / TG, after administration / HDL-C, before administration / LDL-C, before administration / TC, before administration / TG, before administration / HDL-C, after administration: blood plasma, x±s; for HDL-C, before administration / LDL-C, before administration / TC, before administration / TG, before administration: baseline of the group before administration, high-lipid feed 2 weeks, 6 animals; for therapeutic effect compared with fenofibrate (conclusion from table 4): fenofibrate 40 mg/kg
Excerpt: as §1
Kits: The kits for total cholesterol (TC), triglyceride (TG), and high density lipoprotein cholesterol (HDL-C) were provided by SYSMEX, and the kits for low density lipoprotein cholesterol (LDL-C) were provided by Shanghai Kehua Bio-engineering Co., Ltd.
as §2
as §3, with “pm of” for “pm on”, “h). At” for “h). On”, “TC, TG,” for “TC,”
as §4, with “pm of” for “pm on”, “day. At” for “day. On”, “TC, TG,” for “TC,”
as §5

[5] = 40 mg/kg, t test after vs before administration

| SMILES | solubility in water [3] | regulating effects on the levels of blood lipid (conclusion from table 2) ([1]; 40 mg/kg) | HDL-C, after administration [1] | LDL-C, after administration [1] | TC, after administration [1] | TG, after administration [1] | effect on LDL-C, in comparison with the results before administration (in words) [1, 5] | effect on TG, in comparison with the results before administration (in words) [1, 5] | blood lipid-regulating effects (conclusion from table 3) [2] | HDL-C, after administration [2] | blood lipid-regulating effects (conclusion from table 4) ([4]; 40 mg/kg) | LDL-C, after administration [4] | TC, after administration [4] | TG, after administration [4] | effect on LDL-C, in comparison with the results before administration (in words) [4, 5] | effect on TG, in comparison with the results before administration (in words) [4, 5] | HDL-C, before administration [4] | LDL-C, before administration [4] | TC, before administration [4] | TG, before administration [4] | also measured |
| --- | --- | --- | --- | --- | --- | --- | --- | --- | --- | --- | --- | --- | --- | --- | --- | --- | --- | --- | --- | --- | --- |
| COC(=O)C(CCO)Oc1ccc(C(F)(F)c2ccc(Cl)cc2)cc1 (stereo not drawn) [HS003-031, methyl 2-(4-((4-chlorophenyl)difluoromethyl)phenoxy)-4-hydroxy-butyrate] | insoluble |  |  |  |  |  |  |  |  |  | excellent blood lipid-regulating effects | 1.94 ± 0.42 | 11.44 ± 1.05 | 1.89 ± 0.38 | significantly decreases | significantly decreases | 2.82 ± 0.34 | 3.2 ± 0.83 | 12.61 ± 1.66 | 4.02 ± 1.33 | effect on HDL-C, in comparison with the results before administration (in words) [4, 5]: significantly increases |
| CCOC(=O)C(CC)Oc1ccc(C(F)(F)c2ccc(Cl)cc2)cc1 (stereo not drawn) [HS003-023, Ethyl 2-(4-((4-chlorophenyl)difluoromethyl)phenoxy)butyrate] | insoluble |  |  |  |  |  |  |  |  |  | excellent blood lipid-regulating effects | 2.26 ± 0.38 | 8.49 ± 1.08 | 2.40 ± 0.35 | significantly decreases | significantly decreases | 2.76 ± 0.28 | 2.86 ± 0.63 | 12.39 ± 2.38 | 3.91 ± 1.07 | HDL-C, after administration [4]: 2.88 ± 0.22; therapeutic effect compared with fenofibrate (conclusion from table 4) ([4]; 40 mg/kg): outstanding therapeutic effects, and are superior to fenofibrate; effect on TC, in comparison with the results before administration (in words) [4, 5]: significantly decreases |

Now from value to compound, other results behind:

| solubility in water [3] | SMILES | regulating effects on the levels of blood lipid (conclusion from table 2) ([1]; 40 mg/kg) | HDL-C, after administration [1] | LDL-C, after administration [1] | TC, after administration [1] | TG, after administration [1] | effect on LDL-C, in comparison with the results before administration (in words) [1, 5] | effect on TG, in comparison with the results before administration (in words) [1, 5] | blood lipid-regulating effects (conclusion from table 3) [2] | HDL-C, after administration [2] | blood lipid-regulating effects (conclusion from table 4) ([4]; 40 mg/kg) | LDL-C, after administration [4] | TC, after administration [4] | TG, after administration [4] | effect on LDL-C, in comparison with the results before administration (in words) [4, 5] | effect on TG, in comparison with the results before administration (in words) [4, 5] | HDL-C, before administration [4] | LDL-C, before administration [4] | TC, before administration [4] | TG, before administration [4] | also measured |
| --- | --- | --- | --- | --- | --- | --- | --- | --- | --- | --- | --- | --- | --- | --- | --- | --- | --- | --- | --- | --- | --- |
| insoluble | CC(C)OC(=O)C(C)(C)Oc1ccc(C(F)(F)c2ccccc2Cl)cc1 [HS003-014, Isopropyl 2-(4-((2-chlorophenyl)difluoromethyl)phenoxy)-2-methylpropionate] | tend to the effects of significantly decreasing TG, TC, and LDL-C | 3.55 ± 0.4 | 0.75 ± 0.17 | 8.20 ± 0.91 | 0.92 ± 0.25 | significantly decreases | significantly decreases | excellent blood lipid-regulating effects | 1.82 ± 0.18 |  |  |  |  |  |  |  |  |  |  | therapeutic effect compared with fenofibrate (conclusion from table 2) ([1]; 40 mg/kg, fenofibrate 40 mg/kg): outstanding therapeutical effects, and is significantly superior to fenofibrate; effect on TC, in comparison with the results before administration (in words) [1, 5]: significantly decreases; LDL-C, after administration [2]: 1.39 ± 0.51; TC, after administration [2]: 9.51 ± 1; therapeutic effect compared with fenofibrate (conclusion from table 3) [2]: outstanding therapeutic effects, and are superior to fenofibrate; effect on HDL-C, in comparison with the results before administration (in words) [2]: increases; effect on LDL-C, in comparison with the results before administration (in words) [2]: significantly decreases; effect on TC, in comparison with the results before administration (in words) [2]: significantly decreases; HDL-C, before administration [2]: 1.57 ± 0.16; LDL-C, before administration [2]: 3.36 ± 1.19; TC, before administration [2]: 13.97 ± 2.27 |
| insoluble | COC(=O)C(C)Oc1ccc(C(F)(F)c2ccc(Cl)cc2)cc1 (stereo not drawn) [HS003-024, Methyl 2-(4-((4-chlorophenyl)difluoromethyl)phenoxy) propionate] |  |  |  |  |  |  |  |  |  | excellent blood lipid-regulating effects | 1.64 ± 0.27 | 7.64 ± 0.46 | 1.92 ± 0.38 | significantly decreases | significantly decreases | 2.76 ± 0.42 | 2.97 ± 0.98 | 12.47 ± 1.85 | 3.96 ± 1.15 | HDL-C, after administration [4]: 2.94 ± 0.41; therapeutic effect compared with fenofibrate (conclusion from table 4) ([4]; 40 mg/kg): outstanding therapeutic effects, and are superior to fenofibrate; effect on TC, in comparison with the results before administration (in words) [4, 5]: significantly decreases |
| insoluble | CC(C)OC(=O)C(C)(C)Oc1ccc(C(F)(F)c2ccc(Cl)cc2)cc1Cl [HS003-020, Isopropyl 2-(4-((4-chlorophenyl)difluoromethyl)-2-chlorophenoxy)-2-methylpropionate] | tend to the effects of significantly decreasing TG, TC, and LDL-C | 4.18 ± 0.07 | 1.0 ± 0.35 | 8.88 ± 0.44 | 1.19 ± 0.49 | significantly decreases | significantly decreases | excellent blood lipid-regulating effects | 1.84 ± 0.14 |  |  |  |  |  |  |  |  |  |  | effect on HDL-C, in comparison with the results before administration (in words) [1, 5]: increase; LDL-C, after administration [2]: 1.42 ± 0.39; TC, after administration [2]: 10.34 ± 1.17; therapeutic effect compared with fenofibrate (conclusion from table 3) [2]: outstanding therapeutic effects, and are superior to fenofibrate; effect on HDL-C, in comparison with the results before administration (in words) [2]: significantly increases; effect on LDL-C, in comparison with the results before administration (in words) [2]: significantly decreases; effect on TC, in comparison with the results before administration (in words) [2]: significantly decreases; HDL-C, before administration [2]: 1.45 ± 0.2; LDL-C, before administration [2]: 3.94 ± 1.41; TC, before administration [2]: 14.06 ± 2.17 |
